According to US9034866B2 (Genentech, Inc., priority 2012, dated 2015):
Like-named read-outs stand apart in the source and are kept apart here.

Key:
[1] = tested on: p52 (NF-kB2) nuclear translocation in HeLa cells; assay: p52 nuclear translocation assay (non-classical NF-kB signaling), high content imaging; type: cell-based; conditions: 100 ng/mL anti-lymphotoxin beta receptor antibody for 5 hours, read-out: p52 HeLa Transloc Assay (IC50)
Protocol: (§1) (2) A second set of cell assay are used to define the selectivity of NIK inhibitors toward inhibition of classical vs. non-classical NF-kB signaling and rely on quantification of the nuclear translocation of p52 (NF-kB2) and REL-A (p65) using high content cellular imaging. For the p52 (non-classical NF-kB signaling) nuclear translocation assay, HeLa cells are treated with different concentrations of compounds (0.2% DMSO final) in medium containing 10% fetal bovine serum and then stimulated with 100 ng/mL, of an anti-lymphotoxin beta receptor antibody (R&D Systems) for 5 hours. In the REL-A nuclear translocation assay, HeLa cells are incubated with compounds (0.2% DMSO final) for 4.5 hours in medium containing 10% fetal bovine serum before stimulating them with 10 ng/mL tumor necrosis factor (TNF)-α (R&D Systems) for 30 minutes. Cells are fixed with 4% paraformaldehyde, permeabilized by adding 0.1% Triton X-100 in phosphate buffered saline, and then are incubated with either 2 ug/mL anti-p52 antibody (Millipore) or 400 ng/mL anti-REL-A (p65) antibody (Santa Cruz Biotechnology). Finally, the cells are incubated with an Alexa488-labeled secondary antibody (Invitrogen) and DRAQ5 DNA stain (Biostatus). Imaging is carried out using an Opera reader (Perkin Elmer) and data are analyzed with the aid of Acapella software (Perkin Elmer). The p52 or REL-A translocation into the nucleus is quantified by the ratio of the nuclear to cytoplasmic signal intensity. […] The compounds in listed in Table 1 have the corresponding inhibitory value (IC50 in micromolar) for NIK p52 Translocation Assay as set forth in Table 2.

[2] = tested on: REL-A (p65) nuclear translocation in HeLa cells; assay: REL-A nuclear translocation assay (classical NF-kB signaling), high content imaging; type: cell-based; conditions: Homo sapiens, compounds 4.5 hours, then 10 ng/mL TNF-α for 30 minutes, read-out: REL-A HeLa Transloc Assay (IC50)
Protocol: as §1
The compounds in listed in Table 1 has the corresponding inhibitory value (IC50 in micromolar) for NIK RelA Translocation Assay as set forth in Table 2.

Row | Compound | IC50 ([2]; HeLa) [nM] | IC50 ([1]; Homo sapiens, HeLa, 5 h) [nM] | IC50 ([1]; Homo sapiens) [nM] | IC50 [2] [nM] | IC50 [1] [nM]
1 | NC(=O)c1nc2c(s1)CCOc1cc(F)c(C#CC3(O)CCCC3)cc1-2 [Example 40, 8-fluoro-9-(1-hydroxy-cyclopentyl-ethynyl)-4,5-dihydro-6-oxa-3-thia-1-aza-benzo[e]azulene-2-carboxylic acid amide] |  |  | 68 | 20000 | 
2 | Cc1cc([C@](C)(O)C#Cc2cc3c(cc2F)OCCn2c-3nc(C(N)=O)c2C(=O)NCC#N)no1 [Example 107] |  |  | 83.1 | 20000 | 
3 | NC(=O)c1cn2c(n1)-c1cc(C#CC3(O)CCC3)ccc1C1CC2C1 [Example 369, 10-[2-(1-hydroxycyclobutyl)ethynyl]-5,6,7,12-tetrahydro-5,7-methanobenzo[c]imi-dazo[1,2-a]azepine-2-carboxamide] |  |  | 3700 | > 20000 | 
4 | Cc1cc([C@](C)(O)C#Cc2cc3c(cc2F)C2CC(C2)n2c-3nc(C(N)=O)c2CNC(=O)C2CC2)no1 [Example 363] |  |  | 660 | > 20000 | 
5 | CN1CCC(O)(C#Cc2ccc3c(c2)-c2nc(C(N)=O)sc2CCO3)C1=O (racemic) | > 20000 | 300 |  |  | 
6 | CN1CC[C@@](O)(C#Cc2cc3c(cc2F)C2CC(C2)n2cc(C(N)=O)nc2-3)C1=O [Example 300] | > 20000 | 3000 |  |  | 
7 | Cc1c(C(N)=O)nc2n1C1CC(C1)c1cc(F)c(C#C[C@]3(O)CCN(C)C3=O)cc1-2 [Example 331, 9-fluoro-10-[2-[(3R)-3-hydroxy-1-meth-yl-2-oxo-pyrrolidin-3-yl]ethynyl]-3-meth-yl-5,6,7,12-tetrahydro-5,7-methano-benzo[c]imidazo[1,2-a]azepine-2-carboxamide] | > 20000 | 1000 |  |  | 
8 | NC(=O)c1nc2n(c1C(O)c1ccn[nH]1)C1CC(C1)c1cc(F)c(C#CC3(O)CCCC3)cc1-2 (racemic) [Example 310] | > 20000 | 2600 |  |  | 
9 | CC(C)(O)C#Cc1cc2c(cc1F)C1CC(C1)n1c-2nc(C(N)=O)c1C(C)(C)O [Example 248, 9-fluoro-10-(3-hydroxy-3-methyl-but-1-ynyl)-3-(1-hydroxy-1-methyl-ethyl)-5,6,7,12-tetrahydro-5,7-methanobenzo[c]imi-dazo[1,2-a]azepine-2-carboxamide] |  |  | 1400 | > 20000 | 
10 | CC(C)(O)C#Cc1cc2c(cc1F)C1CC(C1)n1c-2nc(C(N)=O)c1C1CC1 [Example 195, 3-cyclopropyl-9-fluoro-10-(3-hydroxy-3-methyl-but-1-ynyl)-5,6,7,12-tetrahydro-5,7-methanobenzo[c]imidazo[1,2-a]azepine-2-carboxamide] | > 20000 | 2400 |  |  | 
11 | CN1CC[C@@](O)(C#Cc2ccc3c(c2)-n2nc(C(N)=O)c(C(F)(F)F)c2CCO3)C1=O (racemic) [Example 500] | > 20000 | 381 |  |  | 
12 | CN1CC[C@@](O)(C#Cc2cc3c(cc2F)C2CC(C2)c2c-3nc(C(N)=O)n2C)C1=O (mixture of isomers) [Example 381, (±)-10-[3-hydroxy-3-(2-pyridyl)but-1-ynyl]-5,6,7,12-tetrahydro-5,7 methanobenzo[c]imidazo[1,2-a]azepine-2-carboxamide] | > 20000 | 285 |  |  | 
13 | Cc1nc([C@](C)(O)C#Cc2cc3c(cc2F)OC[C@@H](N(C)C)c2sc(C(N)=O)nc2-3)no1 (racemic) [Example 256] | > 20000 | 2900 |  |  | 2000

Further lines, with some results ahead:

Row | IC50 ([2]; HeLa) [nM] | Compound | IC50 ([1]; Homo sapiens, HeLa, 5 h) [nM] | IC50 ([1]; Homo sapiens) [nM] | IC50 [2] [nM] | IC50 [1] [nM]
14 | > 20000 | CNC(=O)c1c(C(N)=O)nc2n1CCOc1cc(F)c(C#CC3(O)CCC3)cc1-2 [Example 362, 9-fluoro-10-[2-(1-hydroxycyclobutyl)ethy-nyl]-N3-methyl-5,6-dihydroimidazo[1,2-d][1,4]benzoxazepine-2,3-dicarbox-amide] | 143 |  |  | 
15 | > 20000 | NC(=O)c1cn2c(n1)-c1cc(C#CC3(O)CCC3)c(F)cc1C1CC2C1 [Example 364, 9-fluoro-10-[2-(1-hydroxycyclobutyl)ethy-nyl]-5,6,7,12-tetrahydro-5,7-methano-benzo[c]imidazo[1,2-a]azepine-2-carboxamide] | 985 |  |  | 
16 | > 20000 | CC(C)(O)C#Cc1cc2c(cc1F)C1CC(C1)n1c-2nc(C(N)=O)c1CNC(=O)C1CC1 (racemic) | 1400 |  |  | 
17 | > 20000 | CN1CCC(O)(C#Cc2cc3c(cc2F)OCCn2cc(C(N)=O)nc2-3)C1=O (racemic) | 4100 |  |  | 
18 | > 20000 | CNC(=O)c1c(C(N)=O)nc2n1C1CC(C1)c1ccc(C#CC3(O)CCC3)cc1-2 [Example 361, 10-[2-(1-hydroxycyclobutyl)ethynyl]-N3-methyl-5,6,7,12-tetrahydro-5,7-meth-anobenzo[c]imidazo[1,2-a]azepine-2,3-dicarboxamide] | 409 |  |  | 
19 | > 20000 | Cn1nccc1C(O)c1c(C(N)=O)nc2n1C1CC(C1)c1cc(F)c(C#CC3(O)CCCC3)cc1-2 (centres unmarked) [Example 304, 9-fluoro-10-[2-(1-hydroxycyclopen-tyl)ethynyl]-3-[hydroxy-(2-methylpyrazol-3-yl)methyl]-5,6,7,12-tetrahydro-5,7-meth-anobenzo[c]imidazo[1,2-a]azepine-2-car-boxamide] | 1100 |  |  | 
20 | > 20000 | CN1CC[C@@](O)(C#Cc2ccc3c(c2)-c2nc(C(N)=O)c(C(=O)NC4CCOCC4)n2CCO3)C1=O [Example 422, 9-fluoro-10-(3-hydroxy-3-methyl-but-1-ynyl)-3-(1-hydroxy-1-methyl-ethyl)-5,6,7,12-tetrahydro-5,7-methanobenzo[c]imidazo[1,2-a]azepine-2-carboxamide] | 406 |  |  | 
21 | > 20000 | Cc1cc([C@](C)(O)C#Cc2ccc3c(c2)-c2nc(C(N)=O)c(CN4CCCC4)n2C2CC3C2)no1 [Example 424, 10-(3-hydroxy-3-methyl-but-1-ynyl)-N3-methyl-5,6,7,12-tetrahydro-5,7-methanobenzo[c]imidazo[1,2-a]azepine-2,3-dicarboxamide] | 3200 |  |  | 
22 | > 20000 | CC(C)(O)Cn1cc(-c2c(C(N)=O)nc3n2C2CC(C2)c2ccc(C#CC4(O)CCCC4)cc2-3)cn1 [Example 289] | 2700 |  |  | 
23 | > 20000 | COC[C@](C)(O)C#Cc1cc2c(cc1F)C1CC(C1)n1cc(C(N)=O)nc1-2 | 2100 |  |  | 
24 | 15300 | COC[C@](C)(O)C#Cc1ccc2c(c1)-c1nc(C(N)=O)sc1[C@H](F)CO2 | 682 |  |  | 
25 | > 20000 | Cc1nc([C@](C)(O)C#Cc2ccc3c(c2)-c2nc(C(N)=O)c(Cc4ccnn4C)n2C2CC3C2)no1 [Example 260, 10-[(3R)-3-hydroxy-3-(5-methyl-1,2,4-oxadiazol-3-yl)but-1-ynyl]-3-[(2-methyl-pyrazol-3-yl)methyl]-5,6,7,12-tetrahydro-5,7-methanobenzo[c]imidazo[1,2-a]aze-pine-2-carboxamide] | 4800 |  |  | 
26 | > 20000 | CNC(=O)c1c(C(N)=O)nc2n1C1CC(C1)c1ccc(C#CC(C)(C)O)cc1-2 (racemic) | 736 |  |  | 
27 | > 20000 | CN1CCC[C@@](O)(C#Cc2ccc3c(c2)-c2nc(C(N)=O)sc2C(F)(F)CO3)C1=O (racemic) | 184 |  |  | 
28 | > 20000 | Cc1nc([C@](C)(O)C#Cc2ccc3c(c2)-c2nc(C(N)=O)sc2C2CC3C2)no1 [Example 450, (R)-9-(3-hydroxy-3-(5-methyl-1,2,4-oxa-diazol-3-yl)but-1-yn-1-yl)-5,6-dihydro-4H-4,6-methanobenzo[6,7]cyclo-hepta[1,2-d]thiazole-2-carboxamide] | 459 |  |  | 
29 | > 20000 | CNC(=O)c1c(C(N)=O)nc2n1CCOc1ccc(C#C[C@]3(O)CCN(C)C3=O)cc1-2 (racemic) [Example 419, (±)-9-fluoro-10-(3-hydroxy-3-methyl-but-1-ynyl)-3-[(3-hydroxypyrrolidin-1-yl)methyl]-5,6,7,12-tetrahydro-5,7-methanobenzo[c]imidazo[1,2-a]azepine-2-carboxamide] | 317 |  |  | 
30 | > 20000 | Cc1cc([C@](C)(O)C#Cc2ccc3c(c2)-n2nc(C(N)=O)cc2[C@H](F)CO3)no1 | 379 |  |  | 
31 | 20000 | CN1CC[C@@](O)(C#Cc2ccc3c(c2)-c2nc(C(N)=O)c(Cc4ccccc4Cl)n2C2CC3C2)C1=O [Example 308] | 1500 |  |  | 
32 | 20000 | CC(O)(C#Cc1cc2c(cc1F)OCCc1sc(C(N)=O)nc1-2)c1ccccn1 (centres unmarked) [Example 93] | 344 |  |  | 
